Measurements: EP4603105A1, “PHARMACEUTICAL COMPOSITION CONTAINING CYCLIC COMPOUND HAVING SELECTIVE KRAS INHIBITORY EFFECT AGAINST HRAS AND NRAS” (CHUGAI SEIYAKU KABUSHIKI KAISHA, priority 2022, dated 2024)
Like-named read-outs stand apart in the source and are kept apart here.

Experiments:
[1] = tested on: human lung cancer strain NCI-H441; assay: NCI-H441 cell proliferation inhibitory activity (CellTiter-Glo, 4 days); format: cell-based; details: read-out: NCl-H441 IC50
Protocol: A test compound was dispensed into a U-bottom 384-well plate as 40 nL serially diluted dimethyl sulfoxide solutions using a liquid handler Echo (LABCYTE). […] This cell suspension was dispensed in an amount of 40 µL per well into a plate containing the test compound, and cultured at 37°C in a 5% carbon dioxide gas incubator. Four days later, 20 µL of CellTiter-Glo (registered trademark) (Promega) was added to each well and […] was measured. […]

[2] = target: GDP-bound KRAS wild-type protein (Homo sapiens, UniProt P01116); assay: Binding to KRAS by surface plasmon resonance (SPR), dissociation constant KD
GDP-bound KRAS wild-type protein, sequence (P01116 1-188 isoform P01116-2): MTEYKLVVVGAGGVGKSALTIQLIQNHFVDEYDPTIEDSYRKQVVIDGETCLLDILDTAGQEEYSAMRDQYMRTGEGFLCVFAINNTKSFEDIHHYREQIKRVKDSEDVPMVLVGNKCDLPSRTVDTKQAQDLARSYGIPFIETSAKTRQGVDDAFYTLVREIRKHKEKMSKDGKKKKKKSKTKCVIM
Procedure, shortened: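 GDP-bound biotin-Avi RAS captured at ~100–300 RU, 30°C, pH 7.4 HBS containing 10 µM GDP, 10 mM MgCl2, 1 mM DTT, 0.01% Tween 20 and 4% DMSO. KD by 1:1 fitting.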

HRAS wild-type protein = HRAS wild-type protein (Homo sapiens, UniProt P01112); assay: Binding to HRAS by surface plasmon resonance (SPR), KD and KD ratio to KRAS
HRAS wild-type protein, sequence (P01112 whole entry): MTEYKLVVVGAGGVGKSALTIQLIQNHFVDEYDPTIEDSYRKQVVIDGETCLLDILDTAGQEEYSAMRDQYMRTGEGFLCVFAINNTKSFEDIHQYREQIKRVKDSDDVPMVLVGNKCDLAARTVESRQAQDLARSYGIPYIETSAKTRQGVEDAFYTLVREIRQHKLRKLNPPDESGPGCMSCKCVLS
Procedure, shortened: (§1)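 Captured GDP-RAS (~100–300 RU) was exposed to increasing compound concentrations, 75 s per step, in running buffer with 10 µM GDP, 10 mM MgCl2 and 4% DMSO at pH 7.4.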

[3] = tested on: human lung cancer strain NCI-H441; format: cell-based
Procedure, shortened: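 Step one: dispense the test compound in serial DMSO dilutions. Step three: add the reagent and measure […].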

[4] = target: GDP-bound NRAS wild-type protein (Homo sapiens, UniProt P01111); assay: Binding to NRAS by surface plasmon resonance (SPR), KD and KD ratio to KRAS
GDP-bound NRAS wild-type protein, sequence (P01111 whole entry): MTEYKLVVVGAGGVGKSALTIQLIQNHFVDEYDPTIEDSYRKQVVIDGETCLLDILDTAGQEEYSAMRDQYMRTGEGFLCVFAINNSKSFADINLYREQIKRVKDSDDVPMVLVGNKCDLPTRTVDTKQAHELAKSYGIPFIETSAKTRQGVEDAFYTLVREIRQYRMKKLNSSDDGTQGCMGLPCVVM
Procedure, shortened: as §1

[5] = ratio of KD for HRAS wild-type protein to KD for KRAS
[6] = ratio of KD for GDP-bound NRAS wild-type protein to KD for KRAS
[7] = Single Cycle Kinetics, 1:1 binding model
[8] = ratio of the KD value with respect to HRAS wild-type protein to the KD value with respect to KRAS
[9] = ratio of the KD value with respect to GDP-bound NRAS wild-type protein to the KD value with respect to KRAS

| IC50 [3] | SMILES | HRAS /KRAS (HRAS wild-type protein; [5]) | NRAS /KRAS [4, 6] | also measured |
| --- | --- | --- | --- | --- |
|  | CCO[C@@H]1C[C@H]2C(=O)NC3(CC(C)(C)C3)C(=O)N(C)[C@@H](C3CCCC3)C(=O)N(C)[C@H](C(=O)N(C)CC)CC(=O)N(C)[C@@H]([C@H](C)OC)C(=O)N[C@@H]([C@@H](C)CC)C(=O)N(C)CC(=O)N(C)[C@H]3C/C=C\CCN(C3=O)[C@@H](Cc3ccc(C)cc3)C(=O)N(C)CC(=O)N[C@@H](CCc3ccc(C(F)(F)F)c(OC)c3)C(=O)N2C1 [PP3225] |  |  | IC50 ([1]; NCI-H441 cells, 4 days): 12.1 nM |
|  | CC[C@H](C)[C@@H]1NC(=O)[C@H](CC)N(C)C(=O)C[C@@H](C(=O)N(C)C)N(C)C(=O)[C@H](C2CCCC2)N(C)C(=O)C2(CCC2)NC(=O)[C@@H]2C[C@@H](C(F)(F)F)CN2C(=O)[C@H](CCc2cc(F)c(C(F)(F)F)c(F)c2)NC(=O)CN(C)C(=O)[C@H](CC2CCC(F)(F)CC2)N2CC/C=C\C[C@@H](C2=O)N(C)C(=O)CN(C)C1=O [PP1451] |  |  | IC50 ([1]; 50% proliferation inhibitory concentration, four days): 61.1 nM |
| 11.5 nM | CCO[C@@H]1C[C@H]2C(=O)NC3(CCC3)C(=O)N(C)[C@@H](C3CCCC3)C(=O)N(C)[C@H](C(=O)N3CCOCC3)CC(=O)N(C)[C@@H](CC(C)C)C(=O)N[C@@H]([C@@H](C)CC)C(=O)N(C)CC(=O)N(C)[C@H]3CC=C(C)CN(C3=O)[C@@H](Cc3ccc(C(F)(F)F)cc3)C(=O)N(C)CC(=O)N[C@@H](CCc3cc(F)c(C(F)(F)F)c(F)c3)C(=O)N2C1 [PP0826] | B (a compound having 3 or more and less than 10 is denoted as B) | C (A compound having a KD ratio of 0.1 or more and less than 3 is denoted as C) | Kd ([2]; Single Cycle Kinetics): 0.13 nM |
| 45 nM | CCO[C@@H]1C[C@H]2C(=O)NC3(CCC3)C(=O)N(C)[C@@H](C3CCCC3)C(=O)N(C)[C@H](C(=O)N3CCOCC3)CC(=O)N(C)[C@@H](CC(C)(C)C)C(=O)N[C@@H]([C@@H](C)CC)C(=O)N(C)CC(=O)N(C)[C@H]3CCCCCN(C3=O)[C@@H](Cc3ccc(C(F)(F)F)cc3)C(=O)N(C)CC(=O)N[C@@H](CCc3cc(F)c(C(F)(F)F)c(F)c3)C(=O)N2C1 [PP0684] |  |  | Kd [2, 7]: 1.1 nM; HRAS /KRAS (HRAS wild-type protein; [8]): B (a compound having 3 or more and less than 10 is denoted as B); NRAS /KRAS [4, 9]: B (a compound having 3 or more and less than 10 is denoted as B) |
| 9.4 nM | CCO[C@@H]1C[C@H]2C(=O)NC3(CC(C)(C)C3)C(=O)N(C)[C@@H](C(CC)CC)C(=O)N(C)[C@H](C(=O)N(C)C)CC(=O)N(C)[C@@H](CC(C)C)C(=O)N[C@@H]([C@@H](C)CC)C(=O)N(C)CC(=O)N(C)[C@H]3C/C=C\CCN(C3=O)[C@@H](Cc3ccc(C)cc3)C(=O)N(C)CC(=O)N[C@@H](CCc3cc(F)c(C(F)(F)F)c(F)c3)C(=O)N2C1 [PP2141] |  |  | Kd [2, 7]: 0.17 nM; HRAS /KRAS (HRAS wild-type protein; [8]): A (a compound having 10 or more and less than 20 is denoted as A); NRAS /KRAS [4, 9]: A (a compound having 10 or more and less than 20 is denoted as A) |
| 23.4 nM | CCO[C@@H]1C[C@H]2C(=O)NC3(CCC3)C(=O)N(C)[C@@H](C3CCCC3)C(=O)N(C)[C@H](C(=O)N(C)CC)CC(=O)N(C)[C@@H](CC3CCC3)C(=O)N[C@@H]([C@@H](C)CC)C(=O)N(C)CC(=O)N(C)[C@H]3C/C=C\CCN(C3=O)[C@@H](Cc3ccc(C(F)(F)F)cc3)C(=O)N(C)CC(=O)N[C@@H](CCc3ccc(Cl)c(Cl)c3)C(=O)N2C1 [PP2824] | A (a compound having 10 or more and less than 20 is denoted as A) | A (a compound having 10 or more and less than 20 is denoted as A) | Kd ([2]; 1:1 binding model): 0.44 nM |
| 56.4 nM | CCO[C@@H]1C[C@H]2C(=O)NC3(CC(C)(C)C3)C(=O)N(C)[C@@H](C3CCCC3)C(=O)N(C)[C@H](C(=O)N(C)CC)CC(=O)N(C)[C@@H](CC(C)C)C(=O)N[C@@H]([C@@H](C)CC)C(=O)N(C)CC(=O)N(C)[C@H]3C/C=C\CCN(C3=O)[C@@H](Cc3ccc(C(F)F)cc3)C(=O)N(C)CC(=O)N[C@@H](CCc3cc(F)c4c(c3)CCC4)C(=O)N2C1 [PP3149] | A (a compound having 10 or more and less than 20 is denoted as A) | A (a compound having 10 or more and less than 20 is denoted as A) | Kd ([2]; 1:1 binding model): 0.84 nM |
